From patent US10124004B2, “Pyrido[3,4-d]pyrimidine derivative and pharmaceutically acceptable salt thereof” (Teijin Pharma Limited, priority 2015, dated 2018)
Where two headings read alike, the source gives them in different places.

Columns and labels:
CDK2/cyclin A2 = target: T1, CDK2/cyclin A2 (Homo sapiens, UniProt P24941); assay: Human CDK2/cyclin A2 inhibitory activity (QS S Assist CDK2/Cyclin A2_FP Kit, IMAP fluorescence polarization); type: biochemical
T1 construct: purchased Carna Biosciences, Inc. QS S Assist CDK2/Cyclin A2_FP Kit
How it was run: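 Kinase activity read as fluorescence polarization (485/535 nm) after phosphorylated fluorescent substrate binds IMAP reagent (30 min, RT, dark). Enzyme (2.5 ng/well) reacted 60 min at RT with ATP/substrate/metal in HEPES pH 7.4 buffer with Tween 20 and DTT; no-enzyme wells define 0% activity; IC50 by curve fit.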

CDK4/cyclin D3 = target: T2, CDK4/cyclin D3 (Homo sapiens, UniProt P11802); assay: Human CDK4/cyclin D3 inhibitory activity (QS S Assist CDK4/Cyclin D3_FP Kit, IMAP fluorescence polarization); type: biochemical
T2 construct: purchased Carna Biosciences, Inc. QS S Assist CDK4/Cyclin D3_FP Kit
How it was run: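 IMAP fluorescence-polarization kinase assay with kit ATP/substrate/metal mix and 12.5 to 25 ng/well enzyme in 20 mM HEPES pH 7.4, 0.01% Tween20, 2 mM DTT. Reaction ran 45 min at room temperature, then binding reagent was added for 30 min in the dark. IC50 was taken from dose-response fits of percent inhibition.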

[1] = Human CDK2/cyclin A2 inhibitory activity, read-out: CDK2 Activity symbol
[2] = Human CDK4/cyclin D3 inhibitory activity, read-out: CDK4 Activity symbol
[3] = 50% inhibitory concentration against CDK2/cyclin A2, given as class symbol
[4] = 50% inhibitory concentration against CDK4/cyclin D3, given as class symbol

T2 sequence (P11802 whole entry): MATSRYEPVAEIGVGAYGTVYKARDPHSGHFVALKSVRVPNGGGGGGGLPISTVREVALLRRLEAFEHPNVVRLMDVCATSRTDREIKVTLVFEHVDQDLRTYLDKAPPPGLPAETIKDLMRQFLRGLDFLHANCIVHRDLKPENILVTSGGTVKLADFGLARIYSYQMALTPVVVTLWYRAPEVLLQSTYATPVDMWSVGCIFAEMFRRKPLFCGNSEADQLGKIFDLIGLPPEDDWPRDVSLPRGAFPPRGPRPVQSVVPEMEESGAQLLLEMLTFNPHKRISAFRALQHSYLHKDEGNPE
T2 sequence (P30281 whole entry partner): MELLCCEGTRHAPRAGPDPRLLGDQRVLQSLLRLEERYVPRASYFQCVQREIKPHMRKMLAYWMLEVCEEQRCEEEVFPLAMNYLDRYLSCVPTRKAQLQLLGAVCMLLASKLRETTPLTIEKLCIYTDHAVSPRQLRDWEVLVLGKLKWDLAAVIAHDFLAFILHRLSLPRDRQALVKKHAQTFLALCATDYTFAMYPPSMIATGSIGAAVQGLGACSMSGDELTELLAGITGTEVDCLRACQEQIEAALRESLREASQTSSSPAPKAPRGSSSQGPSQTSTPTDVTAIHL

Structure (SMILES): CO[C@H](C)c1cc2cnc(Nc3ccc(CN4CCNC(=O)C4)cn3)nc2c(NC(C)C)n1 [Compound 176]
- IC50 (CDK2/cyclin A2; [1]): ≥ 100 nM
- IC50 (CDK4/cyclin D3; [2]): 10 to 100 nM

Structure (SMILES): CC(C)Nc1nc(C(C)O)cc2cnc(Nc3ccc(OC4CCCC4N(C)C)cn3)nc12 (stereo not shown) [Compound 742]
- IC50 (CDK2/cyclin A2; [3]): ≥ 100 nM
- IC50 (CDK4/cyclin D3; [4]): < 10 nM

Structure (SMILES): CO[C@H](C)c1cc2cnc(Nc3ccc(N4CCNCC4)cn3)nc2c(NC(C)C)n1 [Compound 39]
- IC50 (CDK2/cyclin A2; [1]): ≥ 100 nM
- IC50 (CDK4/cyclin D3; [2]): < 10 nM

Structure (SMILES): CC(C)Sc1nc([C@@H](C)O)cc2cnc(Nc3ccc(N4CCNCC4=O)cn3)nc12 [Compound 744]
- IC50 (CDK2/cyclin A2; [3]): ≥ 100 nM
- IC50 (CDK4/cyclin D3; [4]): < 10 nM

Structure (SMILES): CO[C@H](C)c1cc2cnc(Nc3ccc(N4C[C@H]5C[C@@H]4CN5)nn3)nc2c(NC(C)C)n1 [Compound 859]
- IC50 (CDK2/cyclin A2; [3]): ≥ 100 nM
- IC50 (CDK4/cyclin D3; [4]): < 10 nM

Structure (SMILES): C[C@@H](O)c1cc2cnc(Nc3ccc(CN4CCNCC4)cn3)nc2c(NCC2CCOCC2)n1 [Compound 312]
- IC50 (CDK2/cyclin A2; [1]): ≥ 100 nM
- IC50 (CDK4/cyclin D3; [2]): < 10 nM

Structure (SMILES): CC(=O)Nc1ccc(Nc2ncc3cc(C(F)F)nc(NC(C)C)c3n2)nc1 [Compound 86]
- IC50 (CDK2/cyclin A2; [1]): ≥ 100 nM
- IC50 (CDK4/cyclin D3; [2]): 10 to 100 nM

Structure (SMILES): CC(O)c1cc2cnc(Nc3ccc(N4CCNCC4)cn3)nc2c(NC2CCCOC2)n1 (stereo not shown) [Compound 93]
- IC50 (CDK2/cyclin A2; [1]): ≥ 100 nM
- IC50 (CDK4/cyclin D3; [2]): < 10 nM

Structure (SMILES): CC(C)Nc1nc(C(C)O)cc2cnc(Nc3ccc(N4CCC(O)C5(CC5)C4)nn3)nc12 (single isomer, unassigned) [Compound 725]
- IC50 (CDK2/cyclin A2; [3]): ≥ 100 nM
- IC50 (CDK4/cyclin D3; [4]): < 10 nM

Structure (SMILES): CC(C)Nc1nc([C@@H](C)O)cc2cnc(Nc3ccc(CN4CCN(C(=O)CN(C)C)CC4)cn3)nc12 [Compound 1194]
- IC50 (CDK2/cyclin A2; [3]): ≥ 100 nM
- IC50 (CDK4/cyclin D3; [4]): < 10 nM

Structure (SMILES): CNCCOc1ccc(Nc2ncc3c(Cl)c([C@@H](C)O)nc(N[C@@H](C)COC)c3n2)nc1 [Compound 758]
- IC50 (CDK2/cyclin A2; [3]): ≥ 100 nM
- IC50 (CDK4/cyclin D3; [4]): 10 to 100 nM

Structure (SMILES): CC(C)Nc1nc([C@@H](C)O)cc2cnc(Nc3ccc(N4CCN(C(=O)CO)CC4)nn3)nc12 [Compound 659]
- IC50 (CDK2/cyclin A2; [3]): ≥ 100 nM
- IC50 (CDK4/cyclin D3; [4]): < 10 nM

Structure (SMILES): C[C@@H](O)c1cc2cnc(Nc3ccc(CN4CCC(CO)CC4)cn3)nc2c(NCC2CCOCC2)n1 [Compound 1152]
- IC50 (CDK2/cyclin A2; [3]): ≥ 100 nM
- IC50 (CDK4/cyclin D3; [4]): < 10 nM

Structure (SMILES): CC(O)c1cc2cnc(Nc3ccc(N4CCNCC4)cn3)nc2c(NC2CC2)n1 (stereo not shown) [Compound 21]
- IC50 (CDK2/cyclin A2; [1]): ≥ 100 nM
- IC50 (CDK4/cyclin D3; [2]): < 10 nM

Structure (SMILES): CO[C@H](C)c1cc2cnc(Nc3ccc(N4CC5(CNC5)CC4=O)cn3)nc2c(NC(C)C)n1 [Compound 511]
- IC50 (CDK2/cyclin A2; [1]): 10 to 100 nM
- IC50 (CDK4/cyclin D3; [2]): < 10 nM

Structure (SMILES): CC(C)Nc1nc(C(F)F)cc2cnc(Nc3ccc(OCCO)cn3)nc12 [Compound 155]
- IC50 (CDK2/cyclin A2; [1]): 10 to 100 nM
- IC50 (CDK4/cyclin D3; [2]): < 10 nM

Structure (SMILES): CC(C)Nc1nc([C@@H](C)O)cc2cnc(Nc3cnc(CN4CCNCC4)cn3)nc12 [Compound 1049]
- IC50 (CDK2/cyclin A2; [3]): ≥ 100 nM
- IC50 (CDK4/cyclin D3; [4]): < 10 nM

Structure (SMILES): CC(C)Nc1nc(C(F)F)cc2cnc(Nc3ccc(N4CCN(C)CC4)cn3)nc12 [Compound 42]
- IC50 (CDK2/cyclin A2; [1]): 10 to 100 nM
- IC50 (CDK4/cyclin D3; [2]): < 10 nM

Structure (SMILES): CC(=O)c1cc2cnc(Nc3ccc(N4CCNCC4)nn3)nc2c(NC(C)(C)C)n1 [Compound 909]
- IC50 (CDK2/cyclin A2; [3]): ≥ 100 nM
- IC50 (CDK4/cyclin D3; [4]): < 10 nM

Structure (SMILES): CC(C)Nc1nc(C(C)O)cc2cnc(Nc3ccc(N4CCNCC4)cn3)nc12 (stereo not shown) [Compound 9]
- IC50 (CDK2/cyclin A2; [1]): ≥ 100 nM
- IC50 (CDK4/cyclin D3; [2]): < 10 nM

Structure (SMILES): Cc1ncn(Cc2ccc(Nc3ncc4cc([C@@H](C)O)nc(NC(C)C)c4n3)nc2)c1C(=O)O [Compound 965]
- IC50 (CDK2/cyclin A2; [3]): ≥ 100 nM
- IC50 (CDK4/cyclin D3; [4]): 10 to 100 nM

Structure (SMILES): COC(=O)CCc1ccc(Nc2ncc3cc(C(F)F)nc(NC(C)C)c3n2)nc1 [Compound 102]
- IC50 (CDK2/cyclin A2; [1]): ≥ 100 nM
- IC50 (CDK4/cyclin D3; [2]): 10 to 100 nM

Structure (SMILES): CO[C@H](C)c1cc2cnc(Nc3ccc(CN4CCNCC4)cn3)nc2c(NC(C)C2CCOCC2)n1 (stereo partly shown) [Compound 928]
- IC50 (CDK2/cyclin A2; [3]): ≥ 100 nM
- IC50 (CDK4/cyclin D3; [4]): < 10 nM

Structure (SMILES): CO[C@H](C)c1cc2cnc(Nc3ccc(N4CCN(C(=O)CO)CC4)nn3)nc2c(NC(C)C)n1 [Compound 335]
- IC50 (CDK2/cyclin A2; [1]): ≥ 100 nM
- IC50 (CDK4/cyclin D3; [2]): < 10 nM

Structure (SMILES): CC(C)Nc1nc([C@@H](C)O)cc2cnc(Nc3ccc(N4CC[C@@H](O)C4)nn3)nc12 [Compound 661]
- IC50 (CDK2/cyclin A2; [3]): ≥ 100 nM
- IC50 (CDK4/cyclin D3; [4]): < 10 nM

Structure (SMILES): CC(C)Nc1nc([C@@H](C)O)cc2cnc(Nc3cnc(N4CCNCC4)cn3)nc12 [Compound 789]
- IC50 (CDK2/cyclin A2; [3]): ≥ 100 nM
- IC50 (CDK4/cyclin D3; [4]): < 10 nM

Structure (SMILES): CO[C@H](C)c1cc2cnc(Nc3ccc(C4CCN(C(C)=O)CC4)cn3)nc2c(NC(C)C)n1 [Compound 224]
- IC50 (CDK2/cyclin A2; [1]): ≥ 100 nM
- IC50 (CDK4/cyclin D3; [2]): < 10 nM

Structure (SMILES): CC(C)Nc1nc(C(F)F)cc2cnc(Nc3ccc(N4C[C@@H](O)CC4=O)cn3)nc12 [Compound 184]
- IC50 (CDK2/cyclin A2; [1]): 10 to 100 nM
- IC50 (CDK4/cyclin D3; [2]): < 10 nM

Structure (SMILES): CC(C)Nc1nc([C@@H](C)O)cc2cnc(Nc3ccc(CN4CCN(CC(=O)N(C)C)CC4)cn3)nc12 [Compound 1018]
- IC50 (CDK2/cyclin A2; [3]): ≥ 100 nM
- IC50 (CDK4/cyclin D3; [4]): < 10 nM
